Biological target: concanavalin A (ConA) (Canavalia ensiformis, UniProt P02866)
Assay: isothermal titration calorimetry
Assay type: binding

Chain of concanavalin A (ConA) (P02866 164-281 limits assumed): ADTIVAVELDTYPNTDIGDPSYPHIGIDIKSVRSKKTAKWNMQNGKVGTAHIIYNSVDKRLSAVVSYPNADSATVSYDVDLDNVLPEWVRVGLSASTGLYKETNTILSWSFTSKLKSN
Chain of concanavalin A (ConA) (P02866 30-148 limits assumed): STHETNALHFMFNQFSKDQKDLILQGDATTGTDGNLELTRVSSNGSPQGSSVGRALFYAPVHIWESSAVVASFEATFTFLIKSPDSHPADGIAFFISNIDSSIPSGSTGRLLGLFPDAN

Row | SMILES | Kd [µM]
1 | CCCO[C@@H]1O[C@H](CO[C@H]2O[C@H](CO)[C@@H](O)[C@H](O)[C@@H]2O)[C@@H](O)[C@H](O[C@H]2O[C@H](CO)[C@@H](O)[C@H](O)[C@@H]2O)[C@@H]1O [compound 12, n-Propyl 3,6-Di-O-(α-D-mannopyranosyl)-β-D-mannopyranoside] | 3.27
2 | CO[C@H]1O[C@H](CO)[C@@H](O)[C@H](O)[C@@H]1O [methyl α-mannoside] | 4.65

Reference: article PMC4640232 (The Journal of Organic Chemistry, 2015)
